pIC50: −log10 of the molar value.
Species on record: Homo sapiens
Experiment: Compound tested for the inhibition of IL1-beta release stimulated with LPS in human monocytes was determined at a concentration of 1 uM
Type: functional

Compound | inhibition at 1 µM
COC(=O)[C@@]1(C)CCC[C@]2(C)c3cc(O)c(C(C)C)cc3C=C[C@@H]12 | 38%
COC(=O)[C@@]1(C)CCC[C@]2(C)c3cc(O)c([N+](=O)[O-])cc3C=C[C@@H]12 | 5%
COC(=O)[C@@]1(C)CCC[C@]2(C)c3cc(O)ccc3CCC12 (stereo partly drawn) | 15%
COC(=O)[C@@]1(C)CCC[C@]2(C)c3cc(O)c(O)cc3CCC12 (stereo partly drawn) | 42%

Species on record: Homo sapiens
Experiment: Inhibition of IL1-beta release stimulated with LPS in human monocytes
Type: functional

Compound | pIC50
COC(=O)Cc1cc2c(cc1C(=O)OC)[C@@]1(C)CCC[C@](C)(C(=O)OC)[C@@H]1C=C2 | 6.40
C=CCc1c2c(cc(C(=O)OC)c1C(=O)OC)[C@@]1(C)CCC[C@](C)(C(=O)OC)C1CC2 (stereo partly drawn) | 6.70
COC(=O)c1cc2c(c(C)c1C(=O)OC)C=CC1[C@@](C)(C(=O)OC)CCC[C@]21C (stereo partly drawn) | 6.85
CCOC(=O)CCCNC(=O)[C@@]1(C)CCC[C@]2(C)c3cc(C(=O)OC)c(C(=O)OC)cc3C=CC12 (stereo partly drawn) | 6.82
COC(=O)C[C@@]1(C)CCC[C@]2(C)c3cc(C(=O)OC)c(C(=O)OC)cc3C=CC12 (stereo partly drawn) | 6.80
COC(=O)c1cc2c(cc1OC)[C@@]1(C)CCC[C@](C)(C(=O)OC)[C@@H]1C(=O)C2 | 6.59
CCCc1c(C(=O)OC)c(C(=O)OC)cc2c1C(=O)CC1[C@@](C)(C(=O)OC)CCC[C@]21C (stereo partly drawn) | 6.10
CCCc1c2c(cc(C(=O)OC)c1C(=O)OC)[C@@]1(C)CCC[C@](C)(C(=O)OC)C1CC2 (stereo partly drawn) | 6.52
COC(=O)[C@@]1(C)CCC[C@]2(C)c3cc(O)c(O)cc3C=CC12 (stereo partly drawn) | 7.00
COC(=O)c1cc2c(c(Br)c1C(=O)OC)CCC1[C@@](C)(C(=O)OC)CCC[C@]21C (stereo partly drawn) | 6.40
COC(=O)c1cc2c(cc1OC)[C@@]1(C)CCC[C@](C)(C(=O)OC)[C@@H]1C=C2 | 6.80
COC(=O)c1cc2c(cc1C(=O)OC)[C@@]1(C)CCC[C@](C)(C(=O)OC)C1CC2=O (stereo partly drawn) | 6.00
COC(=O)[C@@]1(C)CCC[C@]2(C)c3cc(O)c(OC)cc3C=C[C@@H]12 | 7.00
COC(=O)c1cc2c(cc1Br)C=C[C@H]1[C@@](C)(C(=O)OC)CCC[C@]21C | 6.10
COC(=O)[C@@]1(C)CCC[C@]2(C)c3cc(OC)c(O)cc3CC[C@@H]12 | 5.85
COC(=O)[C@@]1(C)CCC[C@]2(C)c3cc(O)c(N)cc3C=C[C@@H]12 | 6.82
CCCc1c2c(cc(OC)c1C(=O)OC)[C@@]1(C)CCC[C@](C)(C(=O)OC)[C@@H]1C=C2 | 6.52
COC(=O)c1cc2c(c(C)c1C(=O)OC)C(C)=CC1[C@@](C)(C(=O)OC)CCC[C@]21C (stereo partly drawn) | 6.70
COC(=O)[C@@]1(C)CCC[C@]2(C)c3cc(C(=O)OC(C)(C)C)c(C(=O)OC(C)(C)C)cc3C=CC12 (stereo partly drawn) | 6.27

Next, values leading:

pIC50 | Compound
6.96 | COC(=O)[C@@]1(C)CCC[C@]2(C)c3cc(C(=O)OC(C)C)c(C(=O)OC(C)C)cc3C=CC12 (stereo partly drawn)
6.96 | CCCc1c2c(cc(C(=O)OC)c1C(=O)OC)[C@@]1(C)CCC[C@](C)(C(=O)OC)C1C=C2 (stereo partly drawn)
7.00 | COC(=O)c1cc2c(cc1C(=O)OC)[C@@]1(C)CCC[C@](C)(C(=O)OC)C1C=C2 (stereo partly drawn)
7.00 | COc1cc2c(c(C)c1O)C=C[C@H]1[C@@](C)(C(=O)O)CCC[C@]21C
7.00 | COC(=O)[C@@]1(C)CCC[C@]2(C)c3cc(OC)c(O)cc3C=C[C@@H]12
7.00 | COC(=O)c1cc2c(cc1OC)C=C[C@H]1[C@@](C)(C(=O)OC)CCC[C@]21C
6.96 | COC(=O)c1cc2c(cc1C(=O)OC)[C@@]1(C)CCC[C@](C)(C(=O)N3CCOCC3)C1C=C2 (stereo partly drawn)
7.00 | COC(=O)c1cc2c(cc1NS(C)(=O)=O)C=C[C@H]1[C@@](C)(C(=O)OC)CCC[C@]21C
6.96 | COC(=O)c1cc2c(cc1C(=O)OC)[C@@]1(C)CCC[C@](C)(C(=O)O)C1C=C2 (stereo partly drawn)
6.96 | COC(=O)c1cc2c(c(C(C)=O)c1C(=O)OC)CCC1[C@@](C)(C(=O)OC)CCC[C@]21C (stereo partly drawn)

Reference: ChEMBL document CHEMBL1131935, “Novel cytokine release inhibitors. Part IV: analogs of podocarpic acid” (Bioorg Med Chem Lett, 1999)
